# Results published in ChEMBL document CHEMBL5465560, “Selectivity Literature for EUbOPEN Chemogenomic Library” (2024).
# How the values were obtained:
# [1] = target: T1, Muscarinic acetylcholine receptor M1 (Homo sapiens) (UniProt P11229); experiment: Selectivity interaction (Panel of kinases, GPCRs, ion channels and transporters (enzymatic assay)) EUB0000266bCl CHRM1
# T1 sequence (whole entry): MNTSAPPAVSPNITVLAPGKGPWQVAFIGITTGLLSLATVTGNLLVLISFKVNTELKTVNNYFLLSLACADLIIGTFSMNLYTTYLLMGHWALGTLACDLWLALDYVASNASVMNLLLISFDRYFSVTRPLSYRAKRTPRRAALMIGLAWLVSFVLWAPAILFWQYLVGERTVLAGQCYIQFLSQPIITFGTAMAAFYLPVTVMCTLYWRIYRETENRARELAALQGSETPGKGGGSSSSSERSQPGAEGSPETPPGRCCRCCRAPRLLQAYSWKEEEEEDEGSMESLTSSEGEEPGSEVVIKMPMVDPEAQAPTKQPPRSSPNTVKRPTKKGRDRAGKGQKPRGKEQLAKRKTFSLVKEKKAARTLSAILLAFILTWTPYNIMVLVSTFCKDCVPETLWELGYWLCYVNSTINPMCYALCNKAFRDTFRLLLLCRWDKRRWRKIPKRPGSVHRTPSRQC
# [2] = target: T2, Homeodomain-interacting protein kinase 4 (Homo sapiens) (UniProt Q8NE63); experiment: Selectivity interaction (KinomeScan (DiscoverX)) EUB0001079a HIPK4; settings: at 1 µM
# T2 sequence (whole entry): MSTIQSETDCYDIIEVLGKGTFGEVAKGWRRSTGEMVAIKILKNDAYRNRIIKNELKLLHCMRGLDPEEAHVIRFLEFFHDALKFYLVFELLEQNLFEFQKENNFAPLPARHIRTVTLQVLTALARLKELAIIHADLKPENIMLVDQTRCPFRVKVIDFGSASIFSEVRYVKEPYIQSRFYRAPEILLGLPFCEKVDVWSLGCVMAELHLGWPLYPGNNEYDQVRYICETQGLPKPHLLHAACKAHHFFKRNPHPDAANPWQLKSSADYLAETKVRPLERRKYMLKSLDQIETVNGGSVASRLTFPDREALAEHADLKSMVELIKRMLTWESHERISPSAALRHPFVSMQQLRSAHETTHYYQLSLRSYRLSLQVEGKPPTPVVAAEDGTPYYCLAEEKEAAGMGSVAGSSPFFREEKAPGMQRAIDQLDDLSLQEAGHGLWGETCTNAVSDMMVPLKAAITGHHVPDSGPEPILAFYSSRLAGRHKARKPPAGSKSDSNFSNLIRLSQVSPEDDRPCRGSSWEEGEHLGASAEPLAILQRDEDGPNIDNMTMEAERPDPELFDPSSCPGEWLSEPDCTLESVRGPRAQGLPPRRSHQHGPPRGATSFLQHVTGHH
# [3] = target: T3, Serine/threonine-protein kinase Nek11 (Homo sapiens) (UniProt Q8NG66); experiment: Selectivity interaction (KinomeScan (DiscoverX)) EUB0000666a NEK11; settings: at 10 µM
# T3 sequence (whole entry): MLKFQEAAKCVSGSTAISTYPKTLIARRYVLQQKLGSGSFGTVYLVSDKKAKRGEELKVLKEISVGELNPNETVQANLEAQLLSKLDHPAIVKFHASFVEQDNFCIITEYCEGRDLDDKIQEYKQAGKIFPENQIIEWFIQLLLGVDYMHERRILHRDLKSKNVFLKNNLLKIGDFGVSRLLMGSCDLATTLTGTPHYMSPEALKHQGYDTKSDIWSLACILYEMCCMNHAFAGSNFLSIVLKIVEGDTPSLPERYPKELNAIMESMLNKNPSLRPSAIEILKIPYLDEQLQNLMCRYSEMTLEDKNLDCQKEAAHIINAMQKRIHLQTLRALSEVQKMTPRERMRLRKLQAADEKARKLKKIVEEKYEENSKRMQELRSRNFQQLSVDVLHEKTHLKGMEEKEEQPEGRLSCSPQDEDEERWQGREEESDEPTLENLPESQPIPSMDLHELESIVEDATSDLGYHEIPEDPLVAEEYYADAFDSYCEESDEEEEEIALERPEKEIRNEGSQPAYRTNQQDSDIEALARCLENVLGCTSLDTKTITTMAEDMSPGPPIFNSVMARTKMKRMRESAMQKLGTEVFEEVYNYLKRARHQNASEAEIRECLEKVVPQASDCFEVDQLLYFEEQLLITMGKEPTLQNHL
# [4] = target: Phosphatidylinositol 4,5-bisphosphate 3-kinase catalytic subunit gamma isoform (Homo sapiens) (UniProt P48736); experiment: Selectivity interaction (KinomeScan (DiscoverX)) EUB0000877a PIK3CG; settings: at 10 µM
# [5] = target: T4, Serine/threonine-protein kinase Chk1 (Homo sapiens) (UniProt O14757); experiment: Selectivity interaction (Millipore kinase profiler) EUB0000124b CHEK1; settings: at 10 µM
# T4 sequence (whole entry): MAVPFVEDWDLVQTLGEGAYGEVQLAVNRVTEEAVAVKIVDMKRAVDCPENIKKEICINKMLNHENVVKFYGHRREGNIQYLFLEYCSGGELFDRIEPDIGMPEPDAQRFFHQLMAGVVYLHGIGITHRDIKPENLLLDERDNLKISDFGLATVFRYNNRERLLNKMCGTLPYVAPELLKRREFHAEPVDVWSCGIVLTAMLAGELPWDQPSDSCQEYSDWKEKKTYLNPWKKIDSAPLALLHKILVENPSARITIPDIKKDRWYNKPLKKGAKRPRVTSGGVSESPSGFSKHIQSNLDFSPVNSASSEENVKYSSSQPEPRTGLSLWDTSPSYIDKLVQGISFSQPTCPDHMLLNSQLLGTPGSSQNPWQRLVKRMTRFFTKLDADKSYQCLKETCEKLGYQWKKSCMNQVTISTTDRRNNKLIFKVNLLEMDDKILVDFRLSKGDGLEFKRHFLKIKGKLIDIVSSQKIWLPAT
# [6] = target: Serine/threonine-protein kinase PRP4 homolog (Homo sapiens) (UniProt Q13523); experiment: Selectivity interaction (ActivX KiNativ screen (kinase selectivity in THP-1 cell lysates)) EUB0000639a PRPF4; assay type: subcellular; settings: lysate, at 0.2 µM
# [7] = target: MAP kinase-activated protein kinase 3 (Homo sapiens) (UniProt Q16644); experiment: Selectivity interaction (Kinase panel (Invitrogen)) EUB0000639a MAPKAPK3; settings: at 200 nM
# [8] = target: TRAF2 and NCK-interacting protein kinase (Homo sapiens) (UniProt Q9UKE5); experiment: Selectivity interaction (KinomeScan (DiscoverX)) EUB0000607a TNIK; settings: at 10 µM
# [9] = target: RAC-beta serine/threonine-protein kinase (Homo sapiens) (UniProt P31751); experiment: Selectivity interaction (KinomeScan (DiscoverX)) EUB0000607a AKT2; settings: at 10 µM
# [10] = target: Tyrosine-protein kinase Fgr (Homo sapiens) (UniProt P09769); experiment: Selectivity interaction (KinomeScan (DiscoverX)) EUB0001049a FGR; settings: at 1 µM
# [11] = target: Dual specificity testis-specific protein kinase 1 (Homo sapiens) (UniProt Q15569); experiment: Selectivity interaction (KinomeScan (DiscoverX)) EUB0000695a TESK1; settings: at 100 nM
# [12] = target: Casein kinase I isoform delta (Homo sapiens, UniProt P48730); experiment: Selectivity interaction (KinomeScan (DiscoverX)) EUB0000618a CSNK1D; settings: at 10 µM
# Casein kinase I isoform delta, sequence (P48730 whole entry, looked up, canonical isoform): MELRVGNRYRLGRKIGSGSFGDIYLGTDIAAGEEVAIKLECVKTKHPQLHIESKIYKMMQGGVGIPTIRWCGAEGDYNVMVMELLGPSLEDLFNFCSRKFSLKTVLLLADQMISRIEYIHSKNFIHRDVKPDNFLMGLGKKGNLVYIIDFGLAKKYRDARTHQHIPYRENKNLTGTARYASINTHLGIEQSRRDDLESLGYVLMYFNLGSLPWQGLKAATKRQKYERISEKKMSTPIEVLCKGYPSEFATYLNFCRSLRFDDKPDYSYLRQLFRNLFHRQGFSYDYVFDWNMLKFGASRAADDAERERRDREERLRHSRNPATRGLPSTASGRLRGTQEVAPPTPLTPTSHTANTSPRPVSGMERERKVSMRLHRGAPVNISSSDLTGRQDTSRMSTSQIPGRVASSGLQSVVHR
# MAP kinase-activated protein kinase 3 (Homo sapiens), sequence (Q16644 whole entry, looked up): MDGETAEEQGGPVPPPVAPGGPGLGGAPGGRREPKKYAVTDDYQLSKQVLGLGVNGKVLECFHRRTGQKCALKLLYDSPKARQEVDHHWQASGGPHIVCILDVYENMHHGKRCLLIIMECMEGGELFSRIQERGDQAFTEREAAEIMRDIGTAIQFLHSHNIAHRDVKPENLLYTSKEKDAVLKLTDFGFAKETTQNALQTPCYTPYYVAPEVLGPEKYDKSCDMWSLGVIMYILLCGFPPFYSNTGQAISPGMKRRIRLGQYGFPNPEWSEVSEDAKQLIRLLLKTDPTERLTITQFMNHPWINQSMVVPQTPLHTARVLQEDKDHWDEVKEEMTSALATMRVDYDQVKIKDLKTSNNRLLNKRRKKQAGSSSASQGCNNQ
# Dual specificity testis-specific protein kinase 1 (Homo sapiens), sequence (Q15569 whole entry, looked up, canonical isoform): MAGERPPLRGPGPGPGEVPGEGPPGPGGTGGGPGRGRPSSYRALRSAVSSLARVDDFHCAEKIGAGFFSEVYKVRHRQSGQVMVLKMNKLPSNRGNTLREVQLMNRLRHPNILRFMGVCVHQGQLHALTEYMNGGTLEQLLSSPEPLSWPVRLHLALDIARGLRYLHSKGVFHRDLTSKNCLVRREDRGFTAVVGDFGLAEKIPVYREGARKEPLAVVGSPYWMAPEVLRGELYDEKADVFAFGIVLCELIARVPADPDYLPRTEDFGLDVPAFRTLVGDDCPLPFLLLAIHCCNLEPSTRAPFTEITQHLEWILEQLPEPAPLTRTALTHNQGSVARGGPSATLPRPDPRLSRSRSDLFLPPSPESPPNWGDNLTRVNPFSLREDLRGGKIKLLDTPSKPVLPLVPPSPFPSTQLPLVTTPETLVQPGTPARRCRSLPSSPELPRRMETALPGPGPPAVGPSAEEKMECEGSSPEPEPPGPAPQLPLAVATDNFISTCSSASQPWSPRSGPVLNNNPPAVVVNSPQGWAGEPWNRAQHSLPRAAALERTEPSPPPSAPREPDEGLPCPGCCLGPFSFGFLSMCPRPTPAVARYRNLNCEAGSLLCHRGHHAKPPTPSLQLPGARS
# Serine/threonine-protein kinase PRP4 homolog (Homo sapiens), sequence (Q13523 whole entry): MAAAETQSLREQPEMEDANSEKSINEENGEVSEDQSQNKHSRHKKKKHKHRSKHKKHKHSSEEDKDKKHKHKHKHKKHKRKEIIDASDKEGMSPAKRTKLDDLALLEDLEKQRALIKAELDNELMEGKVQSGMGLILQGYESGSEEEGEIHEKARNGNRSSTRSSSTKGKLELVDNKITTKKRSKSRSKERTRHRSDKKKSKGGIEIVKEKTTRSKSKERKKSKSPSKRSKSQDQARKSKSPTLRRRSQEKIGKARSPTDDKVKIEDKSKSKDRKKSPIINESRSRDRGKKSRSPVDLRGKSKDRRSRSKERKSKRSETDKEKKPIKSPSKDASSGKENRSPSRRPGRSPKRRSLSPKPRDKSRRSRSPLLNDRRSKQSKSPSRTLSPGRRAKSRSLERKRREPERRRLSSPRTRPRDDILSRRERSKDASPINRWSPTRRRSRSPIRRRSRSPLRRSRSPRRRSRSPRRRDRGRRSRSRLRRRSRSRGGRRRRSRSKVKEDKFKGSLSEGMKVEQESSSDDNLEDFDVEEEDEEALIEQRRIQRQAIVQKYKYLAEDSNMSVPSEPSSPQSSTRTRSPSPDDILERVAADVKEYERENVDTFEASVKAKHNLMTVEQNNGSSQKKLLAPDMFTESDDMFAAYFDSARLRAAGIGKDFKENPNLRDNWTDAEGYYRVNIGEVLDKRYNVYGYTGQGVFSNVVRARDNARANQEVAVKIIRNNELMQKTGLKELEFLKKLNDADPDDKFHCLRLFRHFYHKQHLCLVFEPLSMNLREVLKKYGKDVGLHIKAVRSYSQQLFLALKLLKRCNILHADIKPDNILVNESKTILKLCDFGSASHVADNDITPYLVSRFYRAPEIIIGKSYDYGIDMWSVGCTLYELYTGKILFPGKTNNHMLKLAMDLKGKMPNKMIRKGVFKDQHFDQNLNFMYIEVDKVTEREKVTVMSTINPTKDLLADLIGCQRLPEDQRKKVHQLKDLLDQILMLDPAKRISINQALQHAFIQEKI
# TRAF2 and NCK-interacting protein kinase (Homo sapiens), sequence (Q9UKE5 whole entry, looked up): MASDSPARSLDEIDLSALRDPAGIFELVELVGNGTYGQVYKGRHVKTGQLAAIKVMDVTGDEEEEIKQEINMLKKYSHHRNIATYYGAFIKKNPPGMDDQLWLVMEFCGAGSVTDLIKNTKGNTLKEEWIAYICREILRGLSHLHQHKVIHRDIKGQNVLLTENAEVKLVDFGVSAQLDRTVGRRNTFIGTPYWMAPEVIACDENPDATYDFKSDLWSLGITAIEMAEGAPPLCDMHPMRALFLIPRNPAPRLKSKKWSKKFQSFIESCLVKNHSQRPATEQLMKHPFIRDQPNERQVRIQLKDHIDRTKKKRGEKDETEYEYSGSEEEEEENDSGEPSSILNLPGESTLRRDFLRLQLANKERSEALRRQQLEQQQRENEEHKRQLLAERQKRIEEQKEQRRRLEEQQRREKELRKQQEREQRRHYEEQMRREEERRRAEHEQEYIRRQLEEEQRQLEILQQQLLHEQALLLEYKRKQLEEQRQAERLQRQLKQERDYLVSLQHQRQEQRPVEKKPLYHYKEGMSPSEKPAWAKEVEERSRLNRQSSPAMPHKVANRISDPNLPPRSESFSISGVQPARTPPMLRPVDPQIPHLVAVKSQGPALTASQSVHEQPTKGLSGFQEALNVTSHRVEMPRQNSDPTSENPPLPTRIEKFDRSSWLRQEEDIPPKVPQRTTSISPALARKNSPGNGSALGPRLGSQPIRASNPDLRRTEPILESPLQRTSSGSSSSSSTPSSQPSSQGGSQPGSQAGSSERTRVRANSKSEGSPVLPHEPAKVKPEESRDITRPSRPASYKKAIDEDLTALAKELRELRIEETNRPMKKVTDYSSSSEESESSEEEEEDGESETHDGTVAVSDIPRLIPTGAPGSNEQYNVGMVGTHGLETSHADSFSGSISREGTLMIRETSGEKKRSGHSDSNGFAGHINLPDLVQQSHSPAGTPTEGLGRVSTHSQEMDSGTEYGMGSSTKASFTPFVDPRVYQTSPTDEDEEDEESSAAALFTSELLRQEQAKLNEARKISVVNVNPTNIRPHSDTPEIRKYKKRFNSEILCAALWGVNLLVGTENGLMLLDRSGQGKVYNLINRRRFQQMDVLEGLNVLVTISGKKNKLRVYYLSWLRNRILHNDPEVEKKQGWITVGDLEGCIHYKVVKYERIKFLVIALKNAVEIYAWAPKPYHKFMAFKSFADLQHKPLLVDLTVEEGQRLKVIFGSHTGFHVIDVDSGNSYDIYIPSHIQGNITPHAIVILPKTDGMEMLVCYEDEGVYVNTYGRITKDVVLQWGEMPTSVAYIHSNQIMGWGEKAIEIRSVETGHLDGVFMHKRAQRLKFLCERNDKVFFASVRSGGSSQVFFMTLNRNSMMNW
# Phosphatidylinositol 4,5-bisphosphate 3-kinase catalytic subunit gamma isoform (Homo sapiens), sequence (P48736 whole entry, looked up, canonical isoform): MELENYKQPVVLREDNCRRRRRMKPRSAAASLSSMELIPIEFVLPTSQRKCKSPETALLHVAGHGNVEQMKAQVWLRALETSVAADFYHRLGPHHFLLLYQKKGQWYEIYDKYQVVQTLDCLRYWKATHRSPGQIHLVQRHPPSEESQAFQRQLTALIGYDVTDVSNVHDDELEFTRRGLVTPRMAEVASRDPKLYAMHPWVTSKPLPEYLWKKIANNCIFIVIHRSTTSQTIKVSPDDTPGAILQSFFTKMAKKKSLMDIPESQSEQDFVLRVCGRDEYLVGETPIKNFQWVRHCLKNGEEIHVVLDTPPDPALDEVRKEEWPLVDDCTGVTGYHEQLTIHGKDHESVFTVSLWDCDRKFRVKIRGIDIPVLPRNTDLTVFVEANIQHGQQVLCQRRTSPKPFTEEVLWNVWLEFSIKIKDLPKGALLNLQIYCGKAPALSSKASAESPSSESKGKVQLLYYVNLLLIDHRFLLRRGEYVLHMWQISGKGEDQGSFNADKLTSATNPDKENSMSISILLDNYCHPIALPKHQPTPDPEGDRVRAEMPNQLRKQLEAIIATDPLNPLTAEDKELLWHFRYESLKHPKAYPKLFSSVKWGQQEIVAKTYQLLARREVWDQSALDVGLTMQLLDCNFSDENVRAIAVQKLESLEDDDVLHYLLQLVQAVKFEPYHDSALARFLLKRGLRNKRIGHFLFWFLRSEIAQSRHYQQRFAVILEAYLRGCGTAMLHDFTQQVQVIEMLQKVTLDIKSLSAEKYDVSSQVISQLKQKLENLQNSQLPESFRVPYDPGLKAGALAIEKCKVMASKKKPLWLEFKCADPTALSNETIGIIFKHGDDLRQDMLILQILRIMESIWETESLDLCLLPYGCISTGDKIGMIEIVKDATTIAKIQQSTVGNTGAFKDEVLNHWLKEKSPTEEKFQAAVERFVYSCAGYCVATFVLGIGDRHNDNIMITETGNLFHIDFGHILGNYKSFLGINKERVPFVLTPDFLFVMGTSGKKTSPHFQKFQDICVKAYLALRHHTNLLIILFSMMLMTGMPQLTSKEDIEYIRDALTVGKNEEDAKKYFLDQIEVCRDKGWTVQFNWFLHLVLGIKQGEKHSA
smiles,measurement,setting,value
CCn1c(-c2nc3cc(C(=O)N4CCCC(N)C4)ccc3n2C)cc2ccccc21 (configuration not stated),pXC50,[1],4.8 M
Nc1cnc(N2CCc3cc(S(=O)(=O)Nc4c(F)cc(Cl)cc4F)cc(N4CCCC4=O)c32)nc1 [TP-020n],% of control,[2],100%
O=C(NOC[C@H](O)CO)c1ccc(F)c(F)c1Nc1ccc(I)cc1F,% of control,[3],91%
CCC(=O)N1CC[C@H](Nc2ncnc3c2CN(c2cnc(OC)c(C(F)(F)F)c2)CC3)C1 [LENIOLISIB],% of inhibition,[4],98%
CC(=O)Nc1cccc(-n2c(=O)n(C3CC3)c(=O)c3c(Nc4ccc(I)cc4F)n(C)c(=O)c(C)c32)c1,% of control,[5],113%
CC[C@@H]1[C@H](F)C(=O)N[C@@H]1COc1nccc2cc(C(N)=O)c(OC)cc12 [ZIMLOVISERTIB],% of inhibition,[6],28.3%
same,% of inhibition,[7],3.83%
CNC(=O)Nc1ccc(-c2nc(N3CC4CCC(C3)O4)c3cnn(C4CCC5(CC4)OCCO5)c3n2)cc1,% of control,[8],100%
same,% of control,[9],100%
COc1cc(Nc2nc(C)cc(-c3cnn4nc(OC)ccc34)n2)cc(C(F)(F)F)c1,% of control,[10],94%
Cc1cc(F)c(C(=O)Nc2cccc(-c3nncn3C(C)C)n2)cc1-n1cnc(C2CC2)c1,% of control,[11],85%
O[C@H]1CC[C@H](Nc2ncc3nc(Nc4c(F)cc(F)cc4F)n([C@H]4CCOC4)c3n2)CC1,% of control,[12],83%
